From PubChem BioAssay (NCI)
Several values for one entry are separate records, joined by “and”; a condition that tells them apart may be missing. Identical values can stand only once.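 Method: 48-hour compound exposure of cells in 96-well plates, five concentrations, linear interpolation of endpoints. GI50 is the concentration that inhibits growth by half. At the TGI there is no net growth.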

Key:
Test in all cases: NCI tumour cell line growth inhibition, 48 h
SK-MEL-2 melanoma = tested on: SK-MEL-2 melanoma
T-47D breast = tested on: T-47D breast
HCT-15 colon = tested on: HCT-15 colon
SF-295 CNS = tested on: SF-295 CNS
HCT-116 colon = tested on: HCT-116 colon
A498 renal = tested on: A498 renal
MOLT-4 leukemia = tested on: MOLT-4 leukemia
NCI-H226 lung = tested on: NCI-H226 lung
DMS 114 small cell lung = tested on: DMS 114 small cell lung
DLD-1 colon = tested on: DLD-1 colon

SMILES	TGI (SK-MEL-2 melanoma)	TGI (T-47D breast)	TGI (HCT-15 colon)	TGI (SF-295 CNS)	TGI (HCT-116 colon)	GI50 (A498 renal)	TGI (A498 renal)	TGI (MOLT-4 leukemia)	TGI (NCI-H226 lung)	GI50 (SK-MEL-2 melanoma)	GI50 (T-47D breast)	GI50 (HCT-15 colon)	GI50 (SF-295 CNS)	GI50 (HCT-116 colon)	GI50 (MOLT-4 leukemia)	GI50 (NCI-H226 lung)	TGI (DMS 114 small cell lung)	TGI (DLD-1 colon)
N=C(N)SCCc1ccccn1	> 100 µM	> 100 µM	> 100 µM	> 100 µM	> 100 µM	37.8 µM and > 100 µM	> 100 µM	> 100 µM	> 100 µM	–	–	–	–	–	–	–	–	–
CCCCCc1c(C)[nH]c(/C=C2\N=C(c3ccc[nH]3)C=C2OCc2ccccc2)c1C	0.0753 µM and 0.0609 µM	0.741 µM and 1.01 µM	0.279 µM and 0.15 µM	0.337 µM and 0.292 µM	0.189 µM and 0.133 µM	0.0411 µM and 0.0298 µM	0.74 µM and 0.219 µM	1.33 µM and 7.14 µM	1.65 µM and 2.03 µM	0.0297 µM and 0.0205 µM	0.0445 µM and 0.0311 µM	0.0368 µM and 0.0246 µM	0.0689 µM and 0.0431 µM	0.0343 µM and 0.0186 µM	0.0365 µM and 0.0402 µM	0.0748 µM and 0.201 µM	–	–
CCOC(=O)Cc1csc(NC(=O)COC(=O)c2ccc(OC)cc2)n1	> 100 µM	> 100 µM	> 100 µM	> 100 µM	> 100 µM	> 100 µM	> 100 µM	> 35.6 µM	> 100 µM	> 100 µM	> 100 µM	> 100 µM	> 100 µM	> 91.9 µM	–	> 100 µM	–	–
CC1(C)[C@@H](OC(N)=O)C=C[C@]2(C=O)[C@H]3CC[C@]4(C)[C@@H](c5ccc(=O)oc5)[C@@H](Cl)C[C@]4(O)C3=CC[C@@H]12	0.0173 µM	0.0175 µM	0.0129 µM	0.0111 µM	0.00818 µM	0.00594 µM	0.0177 µM	0.00724 µM	0.00829 µM	0.00679 µM	0.00635 µM	0.00555 µM	0.00502 µM	0.00409 µM	< 0.0025 µM	0.00433 µM	–	–
CCCCOc1ccc(/C=N/Nc2cc(C)nc3ccc(Cl)cc23)cc1	3.43 µM	3.77 µM	2.74 µM	3.1 µM	4.85 µM	1.52 µM	2.93 µM	3.61 µM	3.41 µM	1.85 µM	1.73 µM	1.35 µM	1.66 µM	2.13 µM	1.7 µM	1.63 µM	–	–
CO[C@H](C(=O)O)[C@@H]1Cc2cc3cc(OC4CC(OC5CC(O)C(O)C(C)O5)C(O)C(C)O4)c(C)c(O)c3c(O)c2C(=O)[C@H]1OC1CC(OC2CC(OC3CC(C)(O)C(O)C(C)O3)C(O)C(C)O2)C(O)C(C)O1 (some centres undefined)	1.56 µM	> 32.5 µM	> 32.5 µM	> 32.5 µM	> 32.5 µM	0.135 µM	0.773 µM	6.41 µM	0.892 µM	0.335 µM	0.302 µM	1.66 µM	0.167 µM	0.132 µM	0.272 µM	0.126 µM	–	–
Cn1ncc(-c2ccc3c(=O)[nH]nc(CN)c3c2)c1-c1c(F)cc2ccccc2c1C#N	16.3 µM	17.6 µM	19.1 µM	24.6 µM	14.5 µM	11.7 µM	23.9 µM	12.6 µM	24.3 µM	4.63 µM	3.48 µM	4.92 µM	11.7 µM	3.69 µM	2.29 µM	7.69 µM	–	–
OC(COc1cccc2ccccc12)CN1CCN(c2ccccc2Cl)CC1 (centres undefined)	29.5 µM	29.6 µM	28.6 µM	26.9 µM	24.5 µM	12.3 µM	24.9 µM	59.5 µM	31.6 µM	15.4 µM	13.9 µM	12.8 µM	11.9 µM	10.8 µM	12.6 µM	15 µM	–	–
O=C1c2ccccc2-c2c1c1ccccc1c(=O)n2-c1ccccc1	50.6 µM	46.7 µM	> 100 µM	23.6 µM	26.8 µM	–	60.7 µM	> 100 µM	41.4 µM	–	–	–	–	–	–	–	–	–
C1CC[N-]CC1.CC(=N\O)/C(C)=N/O.CC(=N\O)/C(C)=N/O.[CH2-]CCN1CCOCC1.[Co+2]	> 100 µM	> 100 µM	> 100 µM	> 100 µM	> 100 µM	> 100 µM	> 100 µM	39.5 µM	> 100 µM	> 100 µM	> 100 µM	> 100 µM	> 100 µM	> 100 µM	5.91 µM	> 100 µM	–	–
Cn1cc(NC(=O)c2cc(NC(=O)CCCCCCC(=O)Nc3cc(C(=O)Nc4cc(C(=O)NCCC(=N)N)n(C)c4)n(C)c3)cn2C)cc1C(=O)NCCC(=N)N	–	–	> 100 µM	> 100 µM	41.6 µM	–	5.28 µM	–	–	–	–	–	–	–	–	–	5.44 µM	> 100 µM
CC(C)(C)C(=O)OCc1nc2cc3c(cc2c(=O)[nH]1)CCC3=O	> 100 µM	> 100 µM	> 100 µM	> 100 µM	> 100 µM	> 100 µM	> 100 µM	> 100 µM	> 100 µM	> 100 µM	> 100 µM	> 100 µM	> 100 µM	> 100 µM	> 100 µM	> 100 µM	–	–
COc1ccc2c(c1)CC[C@@H]1[C@@H]2CC[C@]2(C)C=C(/C=C/C(=O)c3ccccc3)C[C@@H]12	41.5 µM	30.1 µM	34.3 µM	34 µM	29.1 µM	13.3 µM	26.3 µM	54.5 µM	33.6 µM	21 µM	12 µM	17.4 µM	17.5 µM	15.6 µM	16.5 µM	17.1 µM	–	–
Oc1ccc(Cl)cc1-c1cc(-c2ccc(F)cc2)n[nH]1	19.3 µM	38.8 µM	22.5 µM	5.24 µM	5.64 µM	2.21 µM	6.85 µM	41.4 µM	12.9 µM	4.11 µM	1.6 µM	0.416 µM	2.16 µM	2 µM	2.8 µM	2.57 µM	–	–
CN(C)CC1CCCC/C1=N/OC(=O)c1ccc(Cl)c(Cl)c1 (centres undefined)	> 100 µM	–	> 100 µM	> 100 µM	> 100 µM	–	> 100 µM	–	> 100 µM	–	–	–	–	–	–	–	> 100 µM	> 100 µM
Nc1nc(N)c(-c2ccccc2)c(CCC(=O)Nc2ccc(Cl)cc2)n1	> 100 µM	–	> 100 µM	> 100 µM	> 100 µM	–	> 100 µM	> 100 µM	> 100 µM	–	–	–	–	–	–	–	–	> 100 µM
